Values of other authors as cited in US7709654B2, “Process for producing oxazole, imidazole, pyrrazole boryl compounds” (Board of Trustees of Michigan State University, priority 2006, dated 2010).

Target: T1, cyclooxygenase-2 (COX-2) (Homo sapiens, UniProt P35354)
T1 sequence (P35354 18-604): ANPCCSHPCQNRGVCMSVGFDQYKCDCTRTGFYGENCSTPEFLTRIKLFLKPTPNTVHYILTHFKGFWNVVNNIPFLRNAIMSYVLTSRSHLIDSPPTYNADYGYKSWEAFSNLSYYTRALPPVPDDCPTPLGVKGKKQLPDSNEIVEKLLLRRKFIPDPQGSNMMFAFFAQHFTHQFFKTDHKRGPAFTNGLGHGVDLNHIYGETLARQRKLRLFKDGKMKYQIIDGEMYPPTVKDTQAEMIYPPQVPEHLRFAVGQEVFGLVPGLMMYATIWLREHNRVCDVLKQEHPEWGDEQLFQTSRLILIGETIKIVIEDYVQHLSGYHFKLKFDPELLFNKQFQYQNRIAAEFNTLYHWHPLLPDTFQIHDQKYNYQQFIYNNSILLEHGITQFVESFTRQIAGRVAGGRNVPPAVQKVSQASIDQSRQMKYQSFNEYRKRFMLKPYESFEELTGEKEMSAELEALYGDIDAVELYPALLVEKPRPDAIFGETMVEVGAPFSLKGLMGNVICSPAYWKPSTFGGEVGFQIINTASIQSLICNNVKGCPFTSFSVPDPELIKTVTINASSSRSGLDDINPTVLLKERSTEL
Settings: COX-2 versus COX-1

SMILES: Cc1nc(C2CCCCC2)c(-c2ccc(S(N)(=O)=O)c(F)c2)o1 [JTE-522, 4-(4-cyclohexyl-2-methyloxazol-5-yl)-2-fluorobenzenesulfonamide]
- COX-2 inhibition (in words): potent, highly selective, and orally active COX-2 inhibitor
